Columns and labels:
Assay in all cases: NCI 60 cell-line screen
Format in all cases: cell-based
[1] = tested on: 786-0; details: Homo sapiens, Kidney, averaged, quadruplicate testing, read-out: negative log10 GI50 (converted)
Source text: (§1) It is the concentration where 100×(T−To)/To=−50=PG. […] Res., 34, 91-109 (1995).

[2] = tested on: A498; details: Homo sapiens, Kidney, averaged, quadruplicate testing, read-out: negative log10 GI50 (converted)
Source text: as §1

[3] = tested on: A549/ATCC; details: Homo sapiens, Lung, averaged, quadruplicate testing, read-out: negative log10 GI50 (converted)
Source text: as §1

[4] = tested on: ACHN; details: Homo sapiens, Kidney, averaged, quadruplicate testing, read-out: negative log10 GI50 (converted)
Source text: as §1

[5] = tested on: BT-549; details: Homo sapiens, Breast, averaged, quadruplicate testing, read-out: negative log10 GI50 (converted)
Source text: as §1

[6] = tested on: CAKI-1; details: Homo sapiens, Kidney, averaged, quadruplicate testing, read-out: negative log10 GI50 (converted)
Source text: as §1

[7] = tested on: CCRF-CEM; details: Homo sapiens, Leukemia, averaged, quadruplicate testing, read-out: negative log10 GI50 (converted)
Source text: as §1

[8] = tested on: COLO 205; details: Homo sapiens, Colon, averaged, quadruplicate testing, read-out: negative log10 GI50 (converted)
Source text: as §1

[9] = tested on: DU-145; details: Homo sapiens, Prostate, averaged, quadruplicate testing, read-out: negative log10 GI50 (converted)
Source text: as §1

[10] = tested on: EKVX; details: Homo sapiens, Lung, averaged, quadruplicate testing, read-out: negative log10 GI50 (converted)
Source text: as §1

[11] = tested on: HCC-2998; details: Homo sapiens, Colon, averaged, quadruplicate testing, read-out: negative log10 GI50 (converted)
Source text: as §1

[12] = tested on: HCT-116; details: Homo sapiens, Colon, averaged, quadruplicate testing, read-out: negative log10 GI50 (converted)
Source text: as §1

[13] = tested on: HCT-15; details: Homo sapiens, Colon, averaged, quadruplicate testing, read-out: negative log10 GI50 (converted)
Source text: as §1

[14] = tested on: HL-60-TB; details: Homo sapiens, HL-60, read-out: negative log10 GI50 (converted)
Source text: as §1

[15] = tested on: HOP-62; details: Homo sapiens, Lung, averaged, quadruplicate testing, read-out: negative log10 GI50 (converted)
Source text: as §1

[16] = tested on: HOP-92; details: Homo sapiens, Lung, averaged, quadruplicate testing, read-out: negative log10 GI50 (converted)
Source text: as §1

[17] = tested on: HS-578T; details: Homo sapiens, Breast, averaged, quadruplicate testing, read-out: negative log10 GI50 (converted)
Source text: as §1

[18] = tested on: HT29; details: Homo sapiens, HT-29, Colon, averaged, quadruplicate testing, read-out: negative log10 GI50 (converted)
Source text: as §1

[19] = tested on: IGROV1; details: Homo sapiens, IGROV-1, Ovary, averaged, quadruplicate testing, read-out: negative log10 GI50 (converted)
Source text: as §1

[20] = tested on: K-562; details: Homo sapiens, K562, Leukemia, averaged, quadruplicate testing, read-out: negative log10 GI50 (converted)
Source text: as §1

[21] = tested on: KM12; details: Homo sapiens, Colon, averaged, quadruplicate testing, read-out: negative log10 GI50 (converted)
Source text: as §1

[22] = tested on: LOX-IMVI; details: Homo sapiens, Melanoma, averaged, quadruplicate testing, read-out: negative log10 GI50 (converted)
Source text: as §1

[23] = tested on: M14; details: Homo sapiens, Melanoma, averaged, quadruplicate testing, read-out: negative log10 GI50 (converted)
Source text: as §1

[24] = tested on: MALME-3M; details: Homo sapiens, Melanoma, averaged, quadruplicate testing, read-out: negative log10 GI50 (converted)
Source text: as §1

[25] = tested on: MCF-7-ADR-RES; details: Homo sapiens, Breast, averaged, quadruplicate testing, read-out: negative log10 GI50 (converted)
Source text: as §1

[26] = tested on: MCF-7; details: Homo sapiens, MCF7, Breast, averaged, quadruplicate testing, read-out: negative log10 GI50 (converted)
Source text: as §1

[27] = tested on: MDA-MB-231/ATCC; details: Homo sapiens, Breast, averaged, quadruplicate testing, read-out: negative log10 GI50 (converted)
Source text: as §1

[28] = tested on: MDA-MB-435; details: Homo sapiens, Breast, averaged, quadruplicate testing, read-out: negative log10 GI50 (converted)
Source text: as §1

[29] = tested on: MDA-N; details: Homo sapiens, Breast, averaged, quadruplicate testing, read-out: negative log10 GI50 (converted)
Source text: as §1

[30] = tested on: MOLT-4; details: Homo sapiens, Leukemia, averaged, quadruplicate testing, read-out: negative log10 GI50 (converted)
Source text: as §1

[31] = tested on: NCI-H226; details: Homo sapiens, Lung, averaged, quadruplicate testing, read-out: negative log10 GI50 (converted)
Source text: as §1

[32] = tested on: NCI-H23; details: Homo sapiens, Lung, averaged, quadruplicate testing, read-out: negative log10 GI50 (converted)
Source text: as §1

CC/C=C\C=C/C(=O)N/C=C/CC1CC(O)C(C)C/C=C/Cc2cccc(O)c2C(=O)O1 (centres unmarked) [salicylihalamide A]
GI50 [1]: 12 nM
GI50 [2]: 282 nM
GI50 [3]: 2.88 nM
GI50 [4]: 9.77 nM
GI50 [5]: 0.501 nM
GI50 [6]: 1.1 nM
GI50 [7]: 12.9 nM
GI50 [8]: 8.51 nM
GI50 [9]: 5.5 nM
GI50 [10]: 30.2 nM
GI50 [11]: 182 nM
GI50 [12]: 1.82 nM
GI50 [13]: 3.63 nM
GI50 [14]: 0.912 nM
GI50 [15]: 4.17 nM
GI50 [16]: 17 nM
GI50 [17]: 1410 nM
GI50 [18]: 2.88 nM
GI50 [19]: 12.9 nM
GI50 [20]: 3.89 nM
GI50 [21]: 5.01 nM
GI50 [22]: 0.776 nM
GI50 [23]: 1.2 nM
GI50 [24]: 24 nM
GI50 [25]: 8.51 nM
GI50 [26]: 75.9 nM
GI50 [27]: 120 nM
GI50 [28]: 15.1 nM
GI50 [29]: 10 nM
GI50 [30]: 11 nM
GI50 [31]: 1.58 nM
GI50 [32]: 282 nM

From patent US7381744B1, “Method of treating osteoporosis comprising vacuolar-type (H+)-ATPase-inhibiting compounds” (The United States of America as represented by the …, priority 1999, dated 2008)
